Columns and labels:
Assay in all cases: relative viability (nuclei count vs DMSO), 5 days (fraction); higher = more cells survive
NCI-H838 = tested on: NCI-H838
Outline: (§1)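 Lung cancer cell lines in 1536-well plates got either a single drug or a fixed anchor-drug dose together with five library-drug doses (not always all listed) in √10 steps, by pin tool, on the day after seeding. Nuclei were counted after 5 days, and relative viability is the treated-to-vehicle ratio of nuclei counts. Values are medians of duplicate plates.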

BEN = tested on: BEN
Outline: as §1

CAL-12T = tested on: CAL-12T
Outline: as §1

NCI-H1650 = tested on: NCI-H1650
Outline: as §1

NCI-H1793 = tested on: NCI-H1793
Outline: as §1

NCI-H2342 = tested on: NCI-H2342
Outline: as §1

LOU-NH91 = tested on: LOU-NH91
Outline: as §1

NCI-H1975 = tested on: NCI-H1975
Outline: as §1

NCI-H1437 = tested on: NCI-H1437
Outline: as §1

SK-LU-1 = tested on: SK-LU-1
Outline: as §1

LU99A = tested on: LU99A
Outline: as §1

NCI-H2085 = tested on: NCI-H2085
Outline: as §1

COR-L23 = tested on: COR-L23
Outline: as §1

NCI-H1651 = tested on: NCI-H1651
Outline: as §1

NCI-H2023 = tested on: NCI-H2023
Outline: as §1

NCI-H441 = tested on: NCI-H441
Outline: as §1

NCI-H1734 = tested on: NCI-H1734
Outline: as §1

NCI-H460 = tested on: NCI-H460
Outline: as §1

NCI-H358 = tested on: NCI-H358
Outline: as §1

NCI-H1563 = tested on: NCI-H1563
Outline: as §1

NCI-H1355 = tested on: NCI-H1355
Outline: as §1

HCC-366 = tested on: HCC-366
Outline: as §1

`COc1cc2nccc(Oc3ccc(NC(=O)Nc4cc(C)on4)c(Cl)c3)c2cc1OC` [Tivozanib] + N=C(N)NC(=N)NCCc1ccccc1 [Phenformin] (partner 250 µM) showed a relative viability (NCI-H838; first compound 0.005 µM) of 0.538, a relative viability (NCI-H838; first compound 0.01581 µM) of 0.551 and a relative viability (NCI-H838; first compound 0.05 µM) of 0.538. It also gave a relative viability (NCI-H838; first compound 0.5 µM) of 0.564, a relative viability (BEN; first compound 0.005 µM) of 0.25 and a relative viability (BEN; first compound 0.01581 µM) of 0.279. The relative viability (BEN; first compound 0.05 µM) was 0.224, the relative viability (BEN; first compound 0.1581 µM) was 0.314 and the relative viability (BEN; first compound 0.5 µM) was 0.234. The relative viability (CAL-12T; first compound 0.005 µM) was 0.538, the relative viability (CAL-12T; first compound 0.01581 µM) was 0.554 and the relative viability (CAL-12T; first compound 0.05 µM) was 0.494. The relative viability (CAL-12T; first compound 0.1581 µM) was 0.625, the relative viability (CAL-12T; first compound 0.5 µM) was 0.558 and the relative viability (NCI-H1650; first compound 0.005 µM) was 0.454. For the same compound, the relative viability (NCI-H1650; first compound 0.01581 µM) was 0.515, the relative viability (NCI-H1650; first compound 0.05 µM) was 0.486 and the relative viability (NCI-H1650; first compound 0.1581 µM) was 0.497. It also gave a relative viability (NCI-H1650; first compound 0.5 µM) of 0.353, a relative viability (NCI-H1793; first compound 0.005 µM) of 0.35 and a relative viability (NCI-H1793; first compound 0.01581 µM) of 0.352. It also gave a relative viability (NCI-H1793; first compound 0.05 µM) of 0.419, a relative viability (NCI-H1793; first compound 0.1581 µM) of 0.309 and a relative viability (NCI-H1793; first compound 0.5 µM) of 0.335. The relative viability (NCI-H2342; first compound 0.005 µM) was 0.554, the relative viability (NCI-H2342; first compound 0.01581 µM) was 0.585 and the relative viability (NCI-H2342; first compound 0.05 µM) was 0.59. It also gave a relative viability (NCI-H2342; first compound 0.5 µM) of 0.632, a relative viability (LOU-NH91; first compound 0.005 µM) of 0.65 and a relative viability (LOU-NH91; first compound 0.01581 µM) of 0.667. The relative viability (LOU-NH91; first compound 0.05 µM) was 0.748, the relative viability (LOU-NH91; first compound 0.1581 µM) was 0.654 and the relative viability (LOU-NH91; first compound 0.5 µM) was 0.676. For the same compound, the relative viability (NCI-H1975; first compound 0.005 µM) was 0.398, the relative viability (NCI-H1975; first compound 0.01581 µM) was 0.429 and the relative viability (NCI-H1975; first compound 0.05 µM) was 0.397. The relative viability (NCI-H1975; first compound 0.1581 µM) was 0.423, the relative viability (NCI-H1975; first compound 0.5 µM) was 0.395 and the relative viability (NCI-H1437; first compound 0.005 µM) was 0.296. It also gave a relative viability (NCI-H1437; first compound 0.01581 µM) of 0.289, a relative viability (NCI-H1437; first compound 0.05 µM) of 0.316 and a relative viability (NCI-H1437; first compound 0.1581 µM) of 0.339. The relative viability (NCI-H1437; first compound 0.5 µM) was 0.317, the relative viability (SK-LU-1; first compound 0.005 µM) was 0.58 and the relative viability (SK-LU-1; first compound 0.01581 µM) was 0.549. It also gave a relative viability (SK-LU-1; first compound 0.05 µM) of 0.629, a relative viability (SK-LU-1; first compound 0.1581 µM) of 0.376 and a relative viability (SK-LU-1; first compound 0.5 µM) of 0.532. The relative viability (LU99A; first compound 0.005 µM) was 0.79, the relative viability (LU99A; first compound 0.01581 µM) was 0.768 and the relative viability (LU99A; first compound 0.05 µM) was 0.879. For the same compound, the relative viability (LU99A; first compound 0.1581 µM) was 0.769, the relative viability (LU99A; first compound 0.5 µM) was 0.755 and the relative viability (NCI-H2085; first compound 0.005 µM) was 0.652. The relative viability (NCI-H2085; first compound 0.01581 µM) was 0.723, the relative viability (NCI-H2085; first compound 0.05 µM) was 0.711 and the relative viability (NCI-H2085; first compound 0.1581 µM) was 0.62. For the same compound, the relative viability (NCI-H2085; first compound 0.5 µM) was 0.673, the relative viability (COR-L23; first compound 0.005 µM) was 0.427 and the relative viability (COR-L23; first compound 0.01581 µM) was 0.433. It also gave a relative viability (COR-L23; first compound 0.05 µM) of 0.446, a relative viability (COR-L23; first compound 0.1581 µM) of 0.43 and a relative viability (COR-L23; first compound 0.5 µM) of 0.409. For the same compound, the relative viability (NCI-H1651; first compound 0.005 µM) was 0.297, the relative viability (NCI-H1651; first compound 0.01581 µM) was 0.425 and the relative viability (NCI-H1651; first compound 0.05 µM) was 0.314. It also gave a relative viability (NCI-H1651; first compound 0.1581 µM) of 0.36, a relative viability (NCI-H1651; first compound 0.5 µM) of 0.315 and a relative viability (NCI-H2023; first compound 0.005 µM) of 0.408. It also gave a relative viability (NCI-H2023; first compound 0.01581 µM) of 0.421, a relative viability (NCI-H2023; first compound 0.05 µM) of 0.426 and a relative viability (NCI-H2023; first compound 0.1581 µM) of 0.43. It also gave a relative viability (NCI-H2023; first compound 0.5 µM) of 0.377, a relative viability (NCI-H441; first compound 0.005 µM) of 0.797 and a relative viability (NCI-H441; first compound 0.01581 µM) of 0.782. The relative viability (NCI-H441; first compound 0.05 µM) was 0.823, the relative viability (NCI-H441; first compound 0.1581 µM) was 0.881 and the relative viability (NCI-H441; first compound 0.5 µM) was 0.735. It also gave a relative viability (NCI-H1734; first compound 0.005 µM) of 0.343, a relative viability (NCI-H1734; first compound 0.01581 µM) of 0.365 and a relative viability (NCI-H1734; first compound 0.05 µM) of 0.371. For the same compound, the relative viability (NCI-H1734; first compound 0.1581 µM) was 0.362, the relative viability (NCI-H1734; first compound 0.5 µM) was 0.383 and the relative viability (NCI-H460; first compound 0.005 µM) was 0.491. It also gave a relative viability (NCI-H460; first compound 0.01581 µM) of 0.537, a relative viability (NCI-H460; first compound 0.05 µM) of 0.509 and a relative viability (NCI-H460; first compound 0.1581 µM) of 0.547. For the same compound, the relative viability (NCI-H460; first compound 0.5 µM) was 0.503, the relative viability (NCI-H358; first compound 0.005 µM) was 0.306 and the relative viability (NCI-H358; first compound 0.01581 µM) was 0.265. It also gave a relative viability (NCI-H358; first compound 0.05 µM) of 0.411, a relative viability (NCI-H358; first compound 0.1581 µM) of 0.301 and a relative viability (NCI-H358; first compound 0.5 µM) of 0.447. It also gave a relative viability (NCI-H1563; first compound 0.005 µM) of 0.602, a relative viability (NCI-H1563; first compound 0.01581 µM) of 0.634 and a relative viability (NCI-H1563; first compound 0.05 µM) of 0.696. For the same compound, the relative viability (NCI-H1563; first compound 0.1581 µM) was 0.735, the relative viability (NCI-H1563; first compound 0.5 µM) was 0.666 and the relative viability (NCI-H1355; first compound 0.005 µM) was 0.413. The relative viability (NCI-H1355; first compound 0.01581 µM) was 0.432, the relative viability (NCI-H1355; first compound 0.05 µM) was 0.481 and the relative viability (NCI-H1355; first compound 0.1581 µM) was 0.43. For the same compound, the relative viability (NCI-H1355; first compound 0.5 µM) was 0.382, the relative viability (HCC-366; first compound 0.005 µM) was 0.615 and the relative viability (HCC-366; first compound 0.01581 µM) was 0.588. For the same compound, the relative viability (HCC-366; first compound 0.05 µM) was 0.632, the relative viability (HCC-366; first compound 0.1581 µM) was 0.643 and the relative viability (HCC-366; first compound 0.5 µM) was 0.611.

From the supplement of paper PMC10307832
